Patent US20250179103A1, “6-OXODECAHYDROPYRROLO[1,2-A][1,5]DIAZOCINE AND 6-OXODECAHYDRO-4H-PYRROLO[2,1-D][1,5]THIAZOCINE DERIVATIVES AS STAT3 AND STAT6 MODULATORS FOR THE TREATMENT OF CANCER AND INFLAMMATORY CONDITIONS” (Recludix Pharma, Inc., priority 2022, published 2025)
pIC50: −log10 of the molar value.

Tests used:
[1] = target: T1, Recombinant STAT3 protein (STAT3(G127-I722)) (Homo sapiens, UniProt P40763); test: STAT3 Fluorescence Polarization (FP) Assay; assay type: binding; settings: STAT3(G127-I722) 25 nM, probe 5-FAM-GpYLPQTV-NH2 2 nM, 45-minute incubation
T1 construct: Recombinant STAT3 protein (STAT3(G127-I722))
Method in brief: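 STAT3(G127-I722), 25 nM, was mixed with 2 nM 5-FAM-GpYLPQTV-NH2 probe in HEPES pH 7.4 buffer with 1% DMSO and serially diluted compound. FP (mP) was read after 45 min at room temperature. IC50 came from nonlinear regression.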

[2] = target: T2, Recombinant STAT6 protein (STAT6(W123-T658)) (Homo sapiens, UniProt P42226); test: STAT6 Fluorescence Polarization (FP) Assay; assay type: binding; settings: STAT6(W123-T658) 250 nM, probe 5-FAM-ApYKPFQDLI-NH2 2 nM, 45-minute incubation
T2 construct: Recombinant STAT6 protein (STAT6(W123-T658))
T2 sequence (P42226 123-658): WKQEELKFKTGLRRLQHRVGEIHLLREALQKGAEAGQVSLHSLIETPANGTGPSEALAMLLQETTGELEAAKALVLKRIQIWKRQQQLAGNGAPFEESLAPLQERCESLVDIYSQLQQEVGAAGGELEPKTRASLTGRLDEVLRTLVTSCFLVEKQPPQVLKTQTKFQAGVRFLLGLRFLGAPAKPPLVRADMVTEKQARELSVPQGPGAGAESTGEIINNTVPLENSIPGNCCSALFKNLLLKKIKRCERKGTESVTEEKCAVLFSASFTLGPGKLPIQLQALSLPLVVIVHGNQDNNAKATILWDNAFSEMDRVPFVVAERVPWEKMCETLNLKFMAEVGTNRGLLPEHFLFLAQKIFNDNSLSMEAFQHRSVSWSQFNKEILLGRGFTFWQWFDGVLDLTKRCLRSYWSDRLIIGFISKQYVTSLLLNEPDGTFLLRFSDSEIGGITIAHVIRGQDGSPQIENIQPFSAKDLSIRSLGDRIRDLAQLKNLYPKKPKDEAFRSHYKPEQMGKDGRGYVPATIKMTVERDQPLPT
Method in brief: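 Displacement of a fluorescent phosphotyrosine peptide (5-FAM-ApYKPFQDLI-NH2, 2 nM) from STAT6(W123-T658) (250 nM), 1% DMSO, pH 7.4 HEPES buffer. After 45 min at room temperature, polarization (mP) was plotted versus log compound concentration and fitted by nonlinear regression to give IC50.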

T1 sequence (P40763 127-722): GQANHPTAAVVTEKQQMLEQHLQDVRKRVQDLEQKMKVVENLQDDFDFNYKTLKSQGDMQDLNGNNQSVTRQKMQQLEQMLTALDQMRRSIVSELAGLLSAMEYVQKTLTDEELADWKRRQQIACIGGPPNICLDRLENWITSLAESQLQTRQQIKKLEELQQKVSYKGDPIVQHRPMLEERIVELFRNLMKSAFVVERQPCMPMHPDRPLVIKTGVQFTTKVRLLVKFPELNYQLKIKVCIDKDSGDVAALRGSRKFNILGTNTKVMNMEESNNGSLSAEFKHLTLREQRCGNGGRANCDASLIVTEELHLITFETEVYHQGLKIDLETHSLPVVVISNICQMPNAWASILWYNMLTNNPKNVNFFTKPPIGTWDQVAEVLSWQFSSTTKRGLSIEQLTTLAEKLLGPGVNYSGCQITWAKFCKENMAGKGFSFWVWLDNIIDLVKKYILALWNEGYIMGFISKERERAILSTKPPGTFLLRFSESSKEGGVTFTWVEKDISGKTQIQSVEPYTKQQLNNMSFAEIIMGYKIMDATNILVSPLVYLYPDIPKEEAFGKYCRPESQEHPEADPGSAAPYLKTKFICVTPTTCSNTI

Row | SMILES | pIC50 [1] | pIC50 [2]
1 | CC(=O)N1CC[C@H]2CC[C@@H](C(=O)N3CCN(C(=O)OCc4ccccc4)CC3)N2C(=O)[C@@H](NC(=O)c2cc3cc(C(F)(F)P(=O)(O)O)ccc3[nH]2)C1 [Compound 35, ((2-(((5S,8S,10aR)-3-acetyl-8-(4-((benzyloxy)carbonyl)piperazine-1-carbonyl)-6-oxodecahydropyrrolo[1,2-a][1,5]diazocin-5-yl)carbamoyl)-1H-indol-5-yl)difluoromethyl)phosphonic acid] | 5.00 to 6.00 | 5.52 to 6.52
2 | CNC(=O)[C@@H]1CC[C@@H]2CCN(C(C)=O)C[C@H](NC(=O)c3cc4cc(C(F)(F)P(=O)(O)O)ccc4[nH]3)C(=O)N21 [Compound 36, ((2-(((5S,8S,10aR)-3-acetyl-8-(methylcarbamoyl)-6-oxodecahydropyrrolo[1,2-a][1,5]diazocin-5-yl)carbamoyl)-1H-indol-5-yl)difluoromethyl)phosphonic acid] | 5.00 to 6.00 | 5.52 to 6.52
3 | CC(=O)N1CC[C@H]2CC[C@@H](C(=O)N3CC(c4cc[nH]c(=O)c4)CC34CC4)N2C(=O)[C@@H](NC(=O)c2ccc3ccc(C(F)(F)P(=O)(O)O)cc3c2)C1 (stereo partly drawn) [Compound 37, ((7-(((5S,8S,10aR)-3-acetyl-6-oxo-8-(6-(2-oxo-1,2-dihydropyridin-4-yl)-4-azaspiro[2.4]heptane-4-carbonyl)decahydropyrrolo[1,2-a][1,5]diazocin-5-yl)carbamoyl)naphthalen-2-yl)difluoromethyl)phosphonic acid] | < 5.00 | ≥ 6.52
4 | CC(=O)N1CC[C@H](NC(=O)c2cc3cc(C(F)(F)P(=O)(O)O)ccc3s2)C(=O)N2[C@H](CC[C@H]2C(=O)N2CC(c3cccnc3)C2)C1 [Compound 40, ((2-(((5S,8S,10aR)-2-acetyl-6-oxo-8-(3-(pyridin-3-yl)azetidine-1-carbonyl)decahydropyrrolo[1,2-a][1,4]diazocin-5-yl)carbamoyl)benzo[b]thiophen-5-yl)difluoromethyl)phosphonic acid] | ≥ 7.00 | 4.52 to 5.52
5 | CC(=O)N1CC[C@H]2CC[C@@H](C(=O)N3C[C@@H](C#N)C[C@@H]3Cc3ccccc3)N2C(=O)[C@@H](NC(=O)c2cc3cc(C(F)(F)P(=O)(O)O)ccc3s2)C1 [Compound 42, ((2-(((5S,8S,10aR)-3-acetyl-8-((2R,4S)-2-benzyl-4-cyanopyrrolidine-1-carbonyl)-6-oxodecahydropyrrolo[1,2-a][1,5]diazocin-5-yl)carbamoyl)benzo[b]thiophen-5-yl)difluoromethyl)phosphonic acid] | 5.00 to 6.00 | 5.52 to 6.52
6 | CC(=O)N1CC[C@H]2CC[C@@H](C(=O)N3C[C@H](C#N)C[C@@H]3Cc3ccccc3)N2C(=O)[C@@H](NC(=O)c2cc3cc(C(F)(F)P(=O)(O)O)ccc3s2)C1 [Compound 43, ((2-(((5S,8S,10aR)-3-acetyl-8-((2R,4R)-2-benzyl-4-cyanopyrrolidine-1-carbonyl)-6-oxodecahydropyrrolo[1,2-a][1,5]diazocin-5-yl)carbamoyl)benzo[b]thiophen-5-yl)difluoromethyl)phosphonic acid] | 5.00 to 6.00 | 5.52 to 6.52
7 | CC(=O)N1CC[C@H]2CC[C@@H](C(=O)Nc3c(C)cc(-c4ccccc4)cc3C)N2C(=O)[C@@H](NC(=O)c2cc3cc(C(F)(F)P(=O)(O)O)ccc3s2)C1 [Compound 44, ((2-(((5S,8S,10aR)-3-acetyl-8-((3,5-dimethyl-[1,1′-biphenyl]-4-yl)carbamoyl)-6-oxodecahydropyrrolo[1,2-a][1,5]diazocin-5-yl)carbamoyl)benzo[b]thiophen-5-yl)difluoromethyl)phosphonic acid] | 6.00 to 7.00 | 4.52 to 5.52
8 | CC(=O)N1CC[C@H]2CC[C@@H](C(=O)N(C)c3ccccc3)N2C(=O)[C@@H](NC(=O)/C(C)=C/c2cccc(C(F)(F)P(=O)(O)O)c2)C1 [Compound 45, ((3-((E)-3-(((5S,8S,10aR)-3-acetyl-8-(methyl(phenyl)carbamoyl)-6-oxodecahydropyrrolo[1,2-a][1,5]diazocin-5-yl)amino)-2-methyl-3-oxoprop-1-en-1-yl)phenyl)difluoromethyl)phosphonic acid] | < 5.00 | < 4.52
9 | CC(=O)N1CC[C@H]2CC[C@@H](C(=O)Nc3ccc(-c4ccccc4)cc3)N2C(=O)[C@@H](NC(=O)c2cc3cc(C(F)(F)P(=O)(O)O)c(F)cc3s2)C1 [Compound 46, ((2-(((5S,8S,10aR)-8-([1,1′-biphenyl]-4-ylcarbamoyl)-3-acetyl-6-oxodecahydropyrrolo[1,2-a][1,5]diazocin-5-yl)carbamoyl)-6-fluorobenzo[b]thiophen-5-yl)difluoromethyl)phosphonic acid] | 5.00 to 6.00 | 5.52 to 6.52
10 | CC(=O)N1CC[C@H]2CC[C@@H](C(=O)N(C)c3ccc(C4(C)COC4)cc3)N2C(=O)[C@@H](NC(=O)c2cc3cc(C(F)(F)P(=O)(O)O)ccc3s2)C1 [Compound 47, ((2-(((5S,8S,10aR)-3-acetyl-8-(methyl(4-(3-methyloxetan-3-yl)phenyl)carbamoyl)-6-oxodecahydropyrrolo[1,2-a][1,5]diazocin-5-yl)carbamoyl)benzo[b]thiophen-5-yl)difluoromethyl)phosphonic acid] | 5.00 to 6.00 | 5.52 to 6.52
11 | CC(=O)N1CC[C@H]2CC[C@@H](C(=O)Nc3ccc(-c4ccccc4)cc3)N2C(=O)[C@@H](NC(=O)c2cc3c(F)c(C(F)(F)P(=O)(O)O)ccc3s2)C1 [Compound 48, ((2-(((5S,8S,10aR)-8-([1,1′-biphenyl]-4-ylcarbamoyl)-3-acetyl-6-oxodecahydropyrrolo[1,2-a][1,5]diazocin-5-yl)carbamoyl)-4-fluorobeno[b]thiophen-5-yl)difluoromethyl)phosphonic acid] | 6.00 to 7.00 | 5.52 to 6.52
12 | CC(=O)N1CC[C@H]2CC[C@@H](C(=O)N(C)c3ccc4oncc4c3)N2C(=O)[C@@H](NC(=O)c2cc3cc(C(F)(F)P(=O)(O)O)ccc3s2)C1 [Compound 49, ((2-(((5S,8S,10aR)-3-acetyl-8-(benzo[d]isoxazol-5-yl(methyl)carbamoyl)-6-oxodecahydropyrrolo[1,2-a][1,5]diazocin-5-yl)carbamoyl)benzo[b]thiophen-5-yl)difluoromethyl)phosphonic acid] | 5.00 to 6.00 | 4.52 to 5.52
13 | CC(=O)N1CC[C@H]2CC[C@@H](C(=O)N(C)c3ccccc3)N2C(=O)[C@@H](NC(=O)/C=C(\C)c2cccc(C(F)(F)P(=O)(O)O)c2)C1 [Compound 50, ((3-((E)-4-(((5S,8S,10aR)-3-acetyl-8-(methyl(phenyl)carbamoyl)-6-oxodecahydropyrrolo[1,2-a][1,5]diazocin-5-yl)amino)-4-oxobut-2-en-2-yl)phenyl)difluoromethyl)phosphonic acid] | < 5.00 | 4.52 to 5.52
14 | CC(=O)N1CC[C@H]2CC[C@@H](C(=O)N(C)c3ccccc3)N2C(=O)[C@@H](NC(=O)/C=C/c2cccc(C(F)(F)P(=O)(O)O)c2)C1 [Compound 51, ((3-((E)-3-(((5S,8S,10aR)-3-acetyl-8-(methyl(phenyl)carbamoyl)-6-oxodecahydropyrrolo[1,2-a][1,5]diazocin-5-yl)amino)-3-oxoprop-1-en-1-yl)phenyl)difluoromethyl)phosphonic acid] | < 5.00 | 4.52 to 5.52
15 | CC(=O)N1CC[C@H]2CC[C@@H](C(=O)N(C)c3ccc(-c4ccccc4)cc3)N2C(=O)[C@@H](NC(=O)c2cc3cc(C(F)(F)P(=O)(O)O)ccc3[nH]2)C1 [Compound 53, ((2-(((5S,8S,10aR)-8-([1,1′-biphenyl]-4-yl(methyl)carbamoyl)-3-acetyl-6-oxodecahydropyrrolo[1,2-a][1,5]diazocin-5-yl)carbamoyl)-1H-indol-5-yl)difluoromethyl)phosphonic acid] | 5.00 to 6.00 | 5.52 to 6.52
16 | CC(=O)N1CC[C@H]2CC[C@@H](C(=O)N(C)Cc3ccccc3)N2C(=O)[C@@H](NC(=O)c2cc3cc(C(F)(F)P(=O)(O)O)ccc3[nH]2)C1 [Compound 54, ((2-(((5S,8S,10aR)-3-acetyl-8-(benzyl(methyl)carbamoyl)-6-oxodecahydropyrrolo[1,2-a][1,5]diazocin-5-yl)carbamoyl)-1H-indol-5-yl)difluoromethyl)phosphonic acid] | 5.00 to 6.00 | 5.52 to 6.52
17 | CC(=O)N1CC[C@H]2CC[C@@H](C(=O)N(c3ccccc3)c3ccccc3)N2C(=O)[C@@H](NC(=O)c2cc3cc(C(F)(F)P(=O)(O)O)ccc3[nH]2)C1 [Compound 55, ((2-(((5S,8S,10aR)-3-acetyl-8-(diphenylcarbamoyl)-6-oxodecahydropyrrolo[1,2-a][1,5]diazocin-5-yl)carbamoyl)-1H-indol-5-yl)difluoromethyl)phosphonic acid] | 5.00 to 6.00 | 5.52 to 6.52
